The experiment concerns the target T1, P2X purinoceptor 3 (Rattus norvegicus) (UniProt P49654).
T1 sequence (whole entry): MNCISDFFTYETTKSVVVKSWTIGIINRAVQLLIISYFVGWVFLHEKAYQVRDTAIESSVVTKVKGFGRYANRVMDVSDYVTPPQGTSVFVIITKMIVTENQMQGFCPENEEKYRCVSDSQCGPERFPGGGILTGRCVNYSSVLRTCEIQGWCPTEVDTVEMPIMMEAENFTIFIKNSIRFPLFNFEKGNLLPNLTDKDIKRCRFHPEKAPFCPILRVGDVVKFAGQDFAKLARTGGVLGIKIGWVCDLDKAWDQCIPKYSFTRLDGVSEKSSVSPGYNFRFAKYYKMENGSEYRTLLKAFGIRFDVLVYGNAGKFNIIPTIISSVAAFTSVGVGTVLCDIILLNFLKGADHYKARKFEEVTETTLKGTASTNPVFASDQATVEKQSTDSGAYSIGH
Nature of the experiment: Antagonist activity against rat P2X3 receptor expressed in CHOK1 cells assessed as inhibition of alpha,beta-meATP-induced calcium response incubated for 20 mins by Fluo-3AM dye based FLIPR assay. It is filed as functional, cell-based. The following applies: CHO-K1.

The record followed here is ChEMBL document CHEMBL3714710, “Diaminopyrimidines as P2X3 and P2X2/3 modulators” (2010).

The source made the active and inactive calls. The rule behind the calls is not given here.

As to `CC(C)c1cc2cccnc2cc1Oc1cnc(N)nc1N`, the inhibition entry is “Active”.

As for `Cc1cccc2cc(Oc3cnc(N)nc3N)c(C(C)C)nc12`, the inhibition result was “Active”.

On to `CC(C)c1cc2ncccc2cc1Oc1cnc(NC(CO)CO)nc1N`, for which the inhibition result was “Active”.

Regarding `Nc1ncc(Oc2cc3ccccc3cc2I)c(N)n1`, the inhibition entry was “Active”.

With `Cc1ccc2nc(C(C)C)c(Oc3cnc(N)nc3N)cc2c1`, the inhibition entry is “Active”.

With `Cc1cccc2cc(Oc3cnc(N)nc3N)c(C(C)C)cc12`, the inhibition result is “Active”.

For `Cc1cccc2cc(C(C)C)c(Oc3cnc(N)nc3N)cc12`, the inhibition result is “Active”.

As to `Cc1nccc2cc(Oc3cnc(N)nc3N)c(C(C)C)cc12`, the inhibition result was “Active”.

For the compound `CC(C)c1nc2ccccc2cc1Oc1cnc(N)nc1N`, the inhibition entry was “Active”.

With `COc1ccc2cc(Oc3cnc(N)nc3N)c(C(C)C)cc2c1`, the inhibition entry was “Active”.
